Measured values published in patent US11498930B2 (BLUERAY THERAPEUTICS (SHANGHAI) CO., LTD., priority 2018, dated 2022).
Read-outs that look alike come from different tables or passages of the source.

Key:
[1] = tested on: phosphorylation level of intracellular protein kinase (ERK) in MOLM13 cells; assay: Phosphorylated protein kinase (p-ERK) cell experiment (AlphaLISA); format: cell-based
Experimental: The inhibitory activities of the compounds on the phosphorylation level of intracellular protein kinase (ERK) were determined by AlphaLISA method.
Firstly, the cells were treated with the compounds. The compounds to be tested were subjected to 3-fold dilution with 100% DMSO, and a total of 9 different concentration gradients were set. MOLM13 cells were then seeded into 96-well plates at a density of 30,000 cells per well in a volume of 100 µL per well. […] of DMSO or the test compounds with different concentrations was then transferred into each well, setting two duplicates for each concentration, and the final concentration of DMSO was controlled at 0.5%.
Secondly, the cells were lysed. After 2 hours of cell treatment, the medium was removed, and the cells were washed 3 times with phosphate buffered saline. 50 µL of freshly prepared lysis buffer was added to each well, and the plates were shaken and kept at room temperature for 10 minutes.
Thirdly, the phosphorylated extracellular signal-regulated kinase (p-ERK) was detected by AlphaLISA@ SureFire® Ultra™ p-ERK 1/2 (Thr202/Tyr204) kit (Perkin Elmer, ALSU-PERK-A10K). 10 µL of the above lysate was transferred to a 384-well plate (Perkin Elmer, 6005350), and the phosphorylation level of the extracellular signal-regulated kinase of the sample was detected according to the product instructions. The signal was read using AlphaScreen detector on Spectra max i3 (Molecular Devices). The percentage of inhibition (%) was calculated by the following formula: Inhibition percentage(%)=(1−p-ERK signal of compound-treated cells/p-ERK signal of DMSO-treated cells)*100

MOLM-13 cells = assay: MOLM-13 cell proliferation experiment; format: cell-based; details: Homo sapiens
Experimental: After 3 days, 5 µL of CellTiter-Glo reagent (Promega, ZG7572) was added to each well, and the plates were kept at room temperature in the dark for 10 minutes. The […] was detected by Spectra max i3 (Molecular Devices). The relative growth rate of the treated cells was compared with that of DMSO control.

SHP2^E76A protein = SHP2^E76A protein (Homo sapiens (Human), UniProt Q06124, E76A); assay: SHP2 enzyme activity inhibition experiment; format: biochemical
Experimental: Compound powders were dissolved in DMSO to prepare mother liquor.
During the experiment, the stock solutions of the compounds were subjected to 3-fold gradient dilution with DMSO, and 10 different test concentrations of each compound were set. […] The protein used was the activated protein SHP^2E76A with amino acid mutation at position 76 of the protein, and the substrate used was DiFMUP (Invitrogen, E12020). […] 50 µL of enzyme solution was added to the detection wells, followed by 50 µL of substrate. […] GraphPad Prism 5 was used for nonlinear regression analysis, and the curve of enzyme activity versus compound concentration was fitted by the equation Y=Bottom+(Top-Bottom)/(1+10^((Log IC50−X)*HillSlope)) to calculate the IC50 value of each compound.

[2] = Homo sapiens, MOLM-13, MOLM13 cells, Table 4, read-out: p-ERK IC50
[3] = Homo sapiens, MOLM-13, p-ERK, MOLM13 cells, 2 hours of cell treatment, Tables 2.1 and 2.2, read-out: IC50
[4] = MOLM-13, 72 h, MOLM-13 cell proliferation, 3 days, Tables 3.1 and 3.2, read-out: IC50
[5] = MOLM-13, read-out: MOLM-13 cell proliferation IC50
[6] = SHP2 enzyme activity, Tables 1.1 and 1.2, read-out: IC50
[7] = Table 4, read-out: SHP2 enzyme activity IC50
[8] = p-ERK, MOLM13 cells, 2 hours of cell treatment, Tables 2.1 and 2.2, read-out: IC50

SHP2^E76A protein, sequence (Q06124 whole entry E76A): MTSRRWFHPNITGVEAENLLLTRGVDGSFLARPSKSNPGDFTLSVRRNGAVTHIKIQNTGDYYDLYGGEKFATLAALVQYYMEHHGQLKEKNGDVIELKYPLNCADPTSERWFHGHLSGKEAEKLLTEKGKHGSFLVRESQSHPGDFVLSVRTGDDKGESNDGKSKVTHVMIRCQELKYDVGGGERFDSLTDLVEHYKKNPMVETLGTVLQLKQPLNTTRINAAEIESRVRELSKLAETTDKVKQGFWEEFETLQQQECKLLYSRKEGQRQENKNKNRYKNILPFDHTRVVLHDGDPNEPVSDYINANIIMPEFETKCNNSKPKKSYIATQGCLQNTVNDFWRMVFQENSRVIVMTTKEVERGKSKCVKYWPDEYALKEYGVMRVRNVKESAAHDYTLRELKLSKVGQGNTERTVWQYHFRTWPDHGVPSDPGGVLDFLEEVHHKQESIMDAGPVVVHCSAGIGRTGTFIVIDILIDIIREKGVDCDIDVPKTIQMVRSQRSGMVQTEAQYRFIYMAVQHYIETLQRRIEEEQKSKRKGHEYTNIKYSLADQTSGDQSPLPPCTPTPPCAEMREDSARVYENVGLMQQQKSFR

SMILES | IC50 [1, 3] [nM] | IC50 (MOLM-13 cells; [4]) [nM] | IC50 (SHP2^E76A protein; [6]) [nM] | other results
CC1(CN)CCN(c2ncc(Sc3cccc(Cl)c3Cl)c3nncn23)CC1 [(1-(8-((2,3-dichlorophenyl)thio)-[1,2,4]triazolo[4,3-c]pyrimidin-5-yl)-4-methylpiperidin-4-yl)methanamine] | 100 to 1000 | 1000 to 10000 | < 100 | IC50 [1, 2]: 170 nM; IC50 (MOLM-13 cells; [5]): 1360 nM; IC50 (SHP2^E76A protein; [7]): 40 nM
C=CC(=O)Nc1cccc(Sc2cnc(N3CCC4(CCC[C@H]4N)CC3)n3ccnc23)c1Cl [(R)-N-(3-((5-(1-amino-8-azaspiro[4.5]decan-8-yl)imidazo[1,2-c]pyrimidin-8-yl)thio)-2-chlorophenyl)acrylamide] | 100 to 1000 | 100 to 1000 | 100 to 1000 | –
C[C@@H]1OCC2(CCN(c3ncc(Sc4ccnc(N)c4Cl)c4nccn34)CC2)[C@@H]1N [(3S,4S)-8-(8-((2-amino-3-chloropyridin-4-yl)thio)imidazo[1,2-c]pyrimidin-5-yl)-3-methyl-2-oxa-8-azaspiro[4.5]decan-4-amine] | 100 to 1000 | < 100 | < 100 | IC50 [1, 2]: 150 nM; IC50 (MOLM-13 cells; [5]): 76 nM; IC50 (SHP2^E76A protein; [7]): 20 nM
Cc1nccc(Sc2cnc(N3CCC4(CC3)CO[C@@H](C)[C@H]4N)n3ccnc23)c1Cl [(3S,4S)-8-(8-((3-chloro-2-methylpyridin-4-yl)thio)imidazo[1,2-c]pyrimidin-5-yl)-3-methyl-2-oxa-8-azaspiro[4.5]decan-4-amine] | < 100 | < 100 | < 100 | IC50 [1, 2]: 19 nM; IC50 (MOLM-13 cells; [5]): 50 nM; IC50 (SHP2^E76A protein; [7]): 15 nM
Cc1nccc(Sc2cnc(N3CCC4(CC3)CO[C@@H](C)[C@H]4N)n3cnnc23)c1Cl [(3S,4S)-8-(8-((3-chloro-2-methylpyridin-4-yl)thio)-[1,2,4]triazolo[4,3-c]pyrimidin-5-yl)-3-methyl-2-oxa-8-azaspiro[4.5]decan-4-amine] | 100 to 1000 | – | < 100 | IC50 [1, 2]: 369 nM; IC50 (MOLM-13 cells; [5]): 277 nM; IC50 (SHP2^E76A protein; [7]): 17 nM
N[C@@H]1CCCC12CCN(c1ncc(Sc3ccnc(Cl)c3Cl)c3nncn13)CC2 [(R)-8-(8-((2,3-dichloropyridin-4-yl)thio)-[1,2,4]triazolo[4,3-c]pyrimidin-5-yl)-8-azaspiro[4.5]decan-1-amine] | 1000 to 10000 | 100 to 1000 | < 100 | –
C[C@@H]1OCC2(CCN(c3ncc(Sc4ccnc(N)c4Cl)c4nncn34)CC2)[C@@H]1N | – | 100 to 1000 | < 100 | IC50 [1, 2]: 335 nM; IC50 (MOLM-13 cells; [5]): 102 nM; IC50 (SHP2^E76A protein; [7]): 13 nM
CC1C[C@@H](N)C2(CCN(c3ncc(Sc4cccc(Cl)c4Cl)c4nncn34)CC2)C1 (stereo partly drawn) | – | – | – | IC50 [1, 8]: < 100 nM
N[C@@H]1CCCC12CCN(c1ncc(Sc3cccnc3Cl)c3nccn13)CC2 | 100 to 1000 | 100 to 1000 | – | –
N[C@@H]1CCCC12CCN(c1ncc(Sc3cccc(Cl)c3Cl)c3nncn13)CC2 [(R)-8-(8-((2,3-dichlorophenyl)thio)-[1,2,4]triazolo[4,3-c]pyrimidin-5-yl)-8-azaspiro[4.5]decan-1-amine] | – | 100 to 1000 | < 100 | –
CC1(N)CCN(c2cnc(-c3cccc(Cl)c3Cl)c(N)n2)CC1 [SHP099, 6-(4-amino-4-methylpiperidin-1-yl)-3-(2,3-dichlorophenyl)pyrazin-2-amine, reference compound] | – | – | – | IC50 ([1]; Homo sapiens, MOLM-13, read-out: p-ERK IC50): 2070 nM
CC1C[C@@H](N)C2(CCN(c3ncc(Sc4ccnc(N)c4Cl)c4nncn34)CC2)C1 (stereo partly drawn) [(1R)-8-(8-((2-amino-3-chloropyridin-4-yl)thio)-[1,2,4]triazolo[4,3-c]pyrimidin-5-yl)-3-methyl-8-azaspiro[4.5]decan-1-amine] | – | 100 to 1000 | < 100 | –
COc1ccccc1Sc1cnc(N2CCC3(CCC[C@H]3N)CC2)n2cnnc12 [(R)-8-(8-((2-methoxyphenyl)thio)-[1,2,4]triazolo[4,3-c]pyrimidin-5-yl)-8-azaspiro[4.5]decan-1-amine] | – | 100 to 1000 | 100 to 1000 | –
N[C@@H]1CCCC12CCN(c1ncc(Sc3ccc(Cl)cc3Cl)c3nncn13)CC2 [(R)-8-(8-((2,4-dichlorophenyl)thio)-[1,2,4]triazolo[4,3-c]pyrimidin-5-yl)-8-azaspiro[4.5]decan-1-amine] | – | 1000 to 10000 | 100 to 1000 | –
NC1CCCCC12CCN(c1ncc(Sc3cccc(Cl)c3Cl)c3ncnn13)CC2 (stereo not drawn) | – | 1000 to 10000 | 100 to 1000 | –
CC1(CN)CCN(c2ncc(Sc3cccc(Cl)c3Cl)c3nccn23)CC1 [(1-(8-((2,3-dichlorophenyl)thio)imidazo[1,2-c]pyrimidin-5-yl)-4-methylpiperidin-4-yl)methanamine] | – | 100 to 1000 | < 100 | –
N[C@@H]1CCOC12CCN(c1ncc(Sc3cccc(Cl)c3Cl)c3nccn13)CC2 [(R)-8-(8-((2,3-dichlorophenyl)thio)imidazo[1,2-c]pyrimidin-5-yl)-1-oxa-8-azaspiro[4.5]decan-4-amine] | 100 to 1000 | – | 100 to 1000 | –
N[C@@H]1CCCC12CCN(c1ncc(Sc3cccc(NC(=O)c4c(O)nc5n(c4=O)CCCC5)c3Cl)c3nccn13)CC2 | – | – | – | IC50 [1, 8]: < 100 nM
N[C@@H]1COCC12CCN(c1ncc(Sc3ccnc(Cl)c3Cl)c3nncn13)CC2 [(S)-8-(8-((2,3-dichloropyridin-4-yl)thio)-[1,2,4]triazolo[4,3-c]pyrimidin-5-yl)-2-oxa-8-azaspiro[4.5]decan-4-amine] | – | 100 to 1000 | 100 to 1000 | –
Nc1cccc(Sc2cnc(N3CCC4(CCC[C@H]4N)CC3)n3ccnc23)c1Cl [(R)-8-(8-((3-amino-2-chlorophenyl)thio)imidazo[1,2-c]pyrimidin-5-yl)-8-azaspiro[4.5]decan-1-amine] | – | 100 to 1000 | 100 to 1000 | –
C[C@@H]1OCC2(CCN(c3ncc(Sc4cc(N)nc(Cl)c4Cl)c4nncn34)CC2)[C@@H]1N [(3S,4S)-8-(8-((6-amino-2,3-dichloropyridin-4-yl)thio)-[1,2,4]triazolo[4,3-c]pyrimidin-5-yl)-3-methyl-2-oxa-8-azaspiro[4.5]decan-4-amine] | – | 100 to 1000 | < 100 | –
N[C@@H]1CCCC12CCN(c1ncc(Sc3cccnc3Cl)c3ncnn13)CC2 | – | 1000 to 10000 | 100 to 1000 | –
CC(C)c1ccccc1Sc1cnc(N2CCC3(CCC[C@H]3N)CC2)n2cnnc12 [(R)-8-(8-((2-isopropylphenyl)thio)-[1,2,4]triazolo[4,3-c]pyrimidin-5-yl)-8-azaspiro[4.5]decan-1-amine] | – | 1000 to 10000 | 100 to 1000 | –
N[C@@H]1CCCN(c2ncc(Sc3cccc(Cl)c3Cl)c3nncn23)CC1 [(R)-1-(8-((2,3-dichlorophenyl)thio)-[1,2,4]triazolo[4,3-c]pyrimidin-5-yl)azepan-4-amine] | – | 1000 to 10000 | 100 to 1000 | –
COC(=O)c1ccccc1Sc1cnc(N2CCC3(CCC[C@H]3N)CC2)n2ccnc12 [Methyl (R)-2-((5-(1-amino-8-azaspiro[4.5]decan-8-yl)imidazo[1,2-c]pyrimidin-8-yl)thio)benzoate] | – | 100 to 1000 | 100 to 1000 | –
Cc1nccc(Sc2cnc(N3CCC4(CC3)CO[C@@H](C)[C@H]4N)n3ncnc23)c1Cl [(3S,4S)-8-(8-((3-chloro-2-methylpyridin-4-yl)thio)-[1,2,4]triazolo[1,5-c]pyrimidin-5-yl)-3-methyl-2-oxa-8-azaspiro[4.5]decan-4-amine] | – | 1000 to 10000 | 100 to 1000 | –
